# Measured values from patent publication US10544153B2, “Benzoic acid, benzoic acid derivatives and heteroaryl carboxylic acid conjugates of oxycodone, prodrugs, methods of making and use thereof” (KemPharm, Inc., priority 2014, dated 2020).
# Columns and labels:
# [1] = Oral PK in rats: plasma concentrations of released oxycodone by LC-MS/MS; conditions: for AUC / Cmax / tmax: conjugate equivalent to 2 mg/kg freebase oxycodone; for %-AUC of OC / %-Cmax of OC / %-tmax of OC: relative to oxycodone (OC)
# [2] = Tamper resistance: percent of OC released under tampering conditions, LC-MS/MS; format: physicochemical; conditions: RT
# Experimental: Effective abuse deterrent forms of drugs of abuse can also be resistant to chemical tampering. The prodrugs in the present technology also impart this characteristic. Several common tampering scenarios were employed and percent of OC released were determined by liquid chromatography with tandem mass spectrometry (LC-MS/MS). The results as shown in Table 7 indicated a very high degree of tamper resistance in the example OC prodrugs, releasing little to no OC.
# [3] = Oral PK in rats: plasma concentrations of oxymorphone by LC-MS/MS; conditions: oxymorphone released; for AUC / Cmax / tmax: conjugate equivalent to 2 mg/kg freebase oxycodone; for %-AUC of OC / %-Cmax of OC / %-tmax of OC: relative to oxycodone (OC)
# [4] = Intranasal PK in rats: plasma concentrations of released oxymorphone by LC-MS/MS; conditions: for AUC / Cmax / tmax: Table 6, equivalent to 2 mg/kg freebase oxycodone; for %-AUC of OC / %-Cmax of OC / %-tmax of OC: Table 6, relative to oxycodone (OC)
# [5] = Intranasal PK in rats (Table 4); conditions: title: oxymorphone released (released oxycodone); for Cmax / tmax: equivalent to 2 mg/kg freebase oxycodone; for %-Cmax of OC / %-tmax of OC: relative to oxycodone (OC)
smiles,measurement,setting,value
COc1ccc2c3c1O[C@H]1C(OC(=O)/C=C/c4ccccc4)=CC[C@@]4(O)[C@@H](C2)N(C)CC[C@]314 [6-Cinnamate-OC],AUC,[1],55.9 ng·h/mL
same,Cmax,[1],0.0355 µg/mL
same,tmax,[1],18 min
same,%-AUC of OC,[1],60%
same,%-Cmax of OC,[1],56%
same,%-tmax of OC,[1],32%
same,percent of OC released,"[2]; 1N HCl, 1 hour",0%
same,percent of OC released,"[2]; 5% Bicarbonate, 1 hour",<1%
same,percent of OC released,"[2]; Water, 1 hour",0%
same,percent of OC released,"[2]; Water, 24 hours",0%
same,AUC,[3],9.2 ng·h/mL
same,Cmax,[3],0.0043 µg/mL
same,tmax,[3],21 min
same,%-AUC of OC,[3],91%
same,%-Cmax of OC,[3],68%
same,%-tmax of OC,[3],40%
same,AUC,[4],1.7 ng·h/mL
same,Cmax,[4],0.0024 µg/mL
same,tmax,[4],30 min
same,%-AUC of OC,[4],18%
same,%-Cmax of OC,[4],18%
same,%-tmax of OC,[4],133%
same,Cmax,[5],0.4972 µg/mL
same,tmax,[5],4.98 min
same,%-Cmax of OC,[5],22%
same,%-tmax of OC,[5],100%
COc1ccc(C(=O)OC2=CC[C@@]3(O)[C@H]4Cc5ccc(OC)c6c5[C@@]3(CCN4C)[C@H]2O6)cc1 [Conjugate 4-MeO-Bz-OC],AUC,[1],55.5 ng·h/mL
same,Cmax,[1],0.0285 µg/mL
same,tmax,[1],15 min
same,%-AUC of OC,[1],59%
same,%-Cmax of OC,[1],61%
same,%-tmax of OC,[1],33%
same,percent of OC released,"[2]; 1N HCl, 1 hour",<1%
same,percent of OC released,"[2]; 5% Bicarbonate, 1 hour",<1%
same,percent of OC released,"[2]; Water, 1 hour",0%
same,percent of OC released,"[2]; Water, 24 hours",<1%
same,AUC,[3],6.7 ng·h/mL
same,Cmax,[3],0.0047 µg/mL
same,tmax,[3],15 min
same,%-AUC of OC,[3],51%
same,%-Cmax of OC,[3],63%
same,%-tmax of OC,[3],83%
same,AUC,[4],7.2 ng·h/mL
same,Cmax,[4],0.0094 µg/mL
same,tmax,[4],22 min
same,%-AUC of OC,[4],65%
same,%-Cmax of OC,[4],60%
same,%-tmax of OC,[4],105%
same,Cmax,[5],0.9494 µg/mL
same,tmax,[5],4.98 min
same,%-Cmax of OC,[5],48%
same,%-tmax of OC,[5],100%
COc1ccc2c3c1O[C@H]1C(OC(=O)c4ccc(O)cc4)=CC[C@@]4(O)[C@@H](C2)N(C)CC[C@]314 [Conjugate 4-OH-Bz-OC],AUC,[1],53.5 ng·h/mL
same,Cmax,[1],0.0354 µg/mL
same,tmax,[1],45 min
same,%-AUC of OC,[1],58%
same,%-Cmax of OC,[1],69%
same,%-tmax of OC,[1],188%
same,percent of OC released,"[2]; 1N HCl, 1 hour",0%
same,percent of OC released,"[2]; 5% Bicarbonate, 1 hour",0%
same,percent of OC released,"[2]; Water, 1 hour",0%
same,percent of OC released,"[2]; Water, 24 hours",0%
same,AUC,[3],3.3 ng·h/mL
same,Cmax,[3],0.0021 µg/mL
same,tmax,[3],15 min
same,%-AUC of OC,[3],55%
same,%-Cmax of OC,[3],49%
same,%-tmax of OC,[3],100%
same,AUC,[4],11.8 ng·h/mL
same,Cmax,[4],0.019 µg/mL
same,tmax,[4],27 min
same,%-AUC of OC,[4],58%
same,%-Cmax of OC,[4],61%
same,%-tmax of OC,[4],90%
same,Cmax,[5],0.7592 µg/mL
same,tmax,[5],4.98 min
same,%-Cmax of OC,[5],41%
same,%-tmax of OC,[5],100%
